In assay [1] the test system is human colon cancer cell line SW60. Put plainly: Cell growth test, MTS assay, SW60. The conditions noted are these: SW60, surviving cell count by MTS on fourth day of culturing. Type of assay: cell-based. On the procedure: (§1) Accordingly, L-2-phenylglycine is considered to be a competitive inhibitor with strong specificity to ATB^0,+ (Hatanaka et al. 2002, J. Pharm. Pharmacol.). The present inventors prepared 20 mM L-2-phenylglycine solution by dissolving L-2-phenylglycine in a medium containing 0% FBS. IMDM was used as the medium for SW60 and HT29; and RPMI was used for MCF-7. This solution was diluted with the medium to prepare L-2-phenylglycine solutions of 2, 0.2, 0.02, and 0.002 mM.
(§2) Human colon cancer cell lines SW60 and HT29, and breast cancer cell line MCF-7 were prepared with medium to form 4×10^6, 1.6×10^6, and 1.6×10^6 cells/mL, respectively. 25 μL/well of the suspensions thus obtained (1×10^5, […], respectively) were plated onto a 96-well plate, which already contained 25 μL/well of medium comprising 12% FBS. 50 μL of L-2-phenylglycine solution was then added to each well. The cells were cultured in a 5% CO2 incubator, and surviving cell count was quantified by MTS assay on the fourth day of culturing.
(In general: Formazan colour is commonly taken as a measure of viable cells.)

Assay [2] concerns breast cancer cell line MCF-7. Briefly: Cell growth test, MTS assay, MCF-7. Type of assay: cell-based, human. On the procedure: as §1, §2
The target in assay [3] is T1, ATB^0,+ (Canis lupus familiaris, UniProt A0A8I3P2T9).
T1 construct: from tissue; host or cells: canine small intestinal brush border membrane (finding quoted from Hatanaka et al. 2002, J. Pharm. Pharmacol.)
T1 sequence (A0A8I3P2T9 1-639): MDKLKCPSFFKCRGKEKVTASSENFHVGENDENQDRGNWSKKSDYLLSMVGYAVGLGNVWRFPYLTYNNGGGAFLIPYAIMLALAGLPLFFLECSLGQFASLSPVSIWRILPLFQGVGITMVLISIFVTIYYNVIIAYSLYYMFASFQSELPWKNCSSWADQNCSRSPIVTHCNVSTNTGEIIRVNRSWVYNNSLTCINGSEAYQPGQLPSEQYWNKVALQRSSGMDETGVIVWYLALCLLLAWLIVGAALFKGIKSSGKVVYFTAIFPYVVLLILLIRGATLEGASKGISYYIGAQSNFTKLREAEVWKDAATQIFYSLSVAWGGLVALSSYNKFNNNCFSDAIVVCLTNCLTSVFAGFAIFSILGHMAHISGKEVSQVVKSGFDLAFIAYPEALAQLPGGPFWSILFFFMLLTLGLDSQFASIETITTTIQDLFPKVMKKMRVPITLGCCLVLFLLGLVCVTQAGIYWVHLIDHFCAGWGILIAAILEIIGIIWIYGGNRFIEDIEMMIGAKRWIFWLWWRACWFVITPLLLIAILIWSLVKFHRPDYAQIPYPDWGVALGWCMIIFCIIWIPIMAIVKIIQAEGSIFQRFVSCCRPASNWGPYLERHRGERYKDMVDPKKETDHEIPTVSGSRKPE
The conditions noted are these: canine small intestinal brush border membrane; Hatanaka et al. 2002, J. Pharm. Pharmacol.; cited from earlier work.

For assay [4], the system named is human colon cancer cell line HT29. Put plainly: Cell growth test, MTS assay, HT29. Type of assay: cell-based. On the procedure: as §1, §2

For `N[C@H](C(=O)O)c1ccccc1` [L-2-phenylglycine], the Cell growth suppression entry in assay [1] is “could not be observed”; in assay [2] (MCF-7, in the presence of 1 mM, MTS on fourth day), “approximately 10%”; in assay [2] (MCF-7, surviving cell count by MTS on fourth day of culturing) it was “concentration-dependent cell growth suppression was observed”; in assay [4] (HT29, in the presence of 10 μM, reached equilibrium, MTS on fourth day), “approximately 10%”; in assay [4] (HT29, surviving cell count by MTS on fourth day of culturing), “concentration-dependent cell growth suppression was observed”. Also, the “Affinity compared with L-alanine and L-phenylalanine” value in assay [3] is on record as “stronger affinity”.

The values are drawn from US20060100280A1, “Cell growth regulator” (Chugai Seiyaku Kabushiki Kaisha, priority 2002, published 2006).
